From publication PMC10564794, “Safety and tolerability of oral vorolanib for neovascular (wet) age-related macular degeneration: a phase I, open-label study” (Eye, 2023)
Read-outs that look alike come from different tables or passages of the source.

Columns and labels:
participants with nAMD = experiment: Phase I safety and tolerability of oral vorolanib (adverse events, DLT, MTD); type: in vivo; details: for Dose-limiting toxicities (DLT): dose escalation
Protocol: This phase I, open-label study consisting of dose escalation and dose expansion was conducted at 6 Chinese sites (NCT02452385 and CTR20150152). This study was approved by the local institutional review board at each participating site and conducted in accordance with the Declaration of Helsinki. All participants provided written informed consent.
The schedule of procedures is shown in Table S1 in the Supplementary Material. In the dose escalation, participants in each group were assigned to receive ascending doses of vorolanib (25, 50, 75 and 100 mg daily). The dose escalated to the next level in the absence of more than two of eight patients with dose-limiting toxicity (DLT), which was defined as a drug-related safety event during the first cycle (30 days) of treatment that was severe enough to require removal of the participant from the study. The maximum tolerated dose (MTD) was defined as the maximum dose at which no more than two of eight DLTs occurred in the group.
AEs were determined by the investigator per the Common Terminology Criteria for Adverse Events version 4.0.

[1] = Pharmacokinetics of vorolanib after single and multiple dosing; type: in vivo, human; details: for half-life / Cmax / Tmax: human, plasma, oral, n = 8; for half-life / Cmax: arithmetic mean (%CV); for Tmax: median (range)
Protocol: In the initial PK evaluation after a single dose, blood samples from participants in the 25 mg group were collected predose (−0.5 h) and at 0.5, 1, 2, 3, 4, 6, 8, 12, 16, 24, 36, and 48 h post-dose; blood samples from participants in the 50 mg and 75 mg groups were collected predose (−0.5 h) and at 0.5, 1, 2, 3, 4, 6, 8, 12, 16, 24, 36, 48, and 72 h post-dose. During continuous dosing, blood in the 50 mg group was obtained on Day 7, Day 14 and Day 21 predose and on Day 30 predose and at 0.5, 1, 2, 3, 4, 6, 8, 12, 16 and 24 h post-dose, while blood in the 75 mg group was obtained on Day 7, Day 14 and Day 21 predose and on Day 30 predose and at 0.5, 1, 2, 3, 4, 6, 8, 12, 16, 24, 36, 48, and 72 h post-dose. The multiple dose data for 25 mg were not collected.
All participants moved from single dosing to multiple daily dosing.

[2] = continuous dose administration, 50 to 75 mg

Cc1[nH]c(/C=C2\C(=O)Nc3ccc(F)cc32)c(C)c1C(=O)N[C@H]1CCN(C(=O)N(C)C)C1 [vorolanib, Vorolanib]
TRAE: Elevated ALT (participants with nAMD; 25 mg, N = 16): 3 (18.8%) number of participants (%)
TRAE: Elevated AST (participants with nAMD; 25 mg, N = 16): 3 (18.8%) number of participants (%)
TRAE: Elevated blood pressure (participants with nAMD; 25 mg, N = 16): 4 (25.0%) number of participants (%)
TRAE: Hair colour changes (participants with nAMD; 25 mg, N = 16): 0 number of participants (%)
TRAE: Leucopenia (participants with nAMD; 25 mg, N = 16): 1 (6.3%) number of participants (%)
TRAE: Neutropenia (participants with nAMD; 25 mg, N = 16): 1 (6.3%) number of participants (%)
TRAE: QT interval prolongation (participants with nAMD; 25 mg, N = 16): 2 (12.5%) number of participants (%)
TRAE: Thrombocytopenia (participants with nAMD; 25 mg, N = 16): 2 (12.5%) number of participants (%)
TRAE: Elevated ALT (participants with nAMD; 50 mg, N = 16): 9 (56.3%) number of participants (%)
TRAE: Elevated AST (participants with nAMD; 50 mg, N = 16): 8 (50.0%) number of participants (%)
TRAE: Elevated blood pressure (participants with nAMD; 50 mg, N = 16): 6 (37.5%) number of participants (%)
TRAE: Hair colour changes (participants with nAMD; 50 mg, N = 16): 4 (25.0%) number of participants (%)
TRAE: Leucopenia (participants with nAMD; 50 mg, N = 16): 3 (18.8%) number of participants (%)
TRAE: Neutropenia (participants with nAMD; 50 mg, N = 16): 3 (18.8%) number of participants (%)
TRAE: QT interval prolongation (participants with nAMD; 50 mg, N = 16): 4 (25.0%) number of participants (%)
TRAE: Thrombocytopenia (participants with nAMD; 50 mg, N = 16): 1 (6.3%) number of participants (%)
Dose-limiting toxicities (DLT) (participants with nAMD; 75 mg cohort): one
TRAE: Elevated ALT (participants with nAMD; 75 mg, N = 8): 5 (62.5%) number of participants (%)
TRAE: Elevated AST (participants with nAMD; 75 mg, N = 8): 4 (50.0%) number of participants (%)
TRAE: Elevated blood pressure (participants with nAMD; 75 mg, N = 8): 3 (37.5%) number of participants (%)
TRAE: Hair colour changes (participants with nAMD; 75 mg, N = 8): 2 (25.0%) number of participants (%)
TRAE: Leucopenia (participants with nAMD; 75 mg, N = 8): 3 (37.5%) number of participants (%)
TRAE: Neutropenia (participants with nAMD; 75 mg, N = 8): 2 (25.0%) number of participants (%)
TRAE: QT interval prolongation (participants with nAMD; 75 mg, N = 8): 1 (12.5%) number of participants (%)
TRAE: Thrombocytopenia (participants with nAMD; 75 mg, N = 8): 3 (37.5%) number of participants (%)
Dose-limiting toxicities (DLT) (participants with nAMD; 100 mg cohort): one
TRAE: Elevated blood pressure (participants with nAMD; 100 mg, N = 1): 0 number of participants (%)
TRAE: Hair colour changes (participants with nAMD; 100 mg, N = 1): 0 number of participants (%)
TRAE: Leucopenia (participants with nAMD; 100 mg, N = 1): 0 number of participants (%)
TRAE: Neutropenia (participants with nAMD; 100 mg, N = 1): 0 number of participants (%)
TRAE: QT interval prolongation (participants with nAMD; 100 mg, N = 1): 0 number of participants (%)
TRAE: Thrombocytopenia (participants with nAMD; 100 mg, N = 1): 0 number of participants (%)
Drug-related AEs leading to drug discontinuation (participants with nAMD; 6 of 41 participants): 14.6%
Fatal TRAEs (participants with nAMD; all cohorts): No fatal TRAEs
Ocular TRAEs (participants with nAMD; all cohorts): no ocular TRAEs occurred
Participants with at least one AE (participants with nAMD; all cohorts, N = 41): 39 (95.1%) participants (%)
Participants with grade 3 or higher TRAEs (participants with nAMD; all cohorts, N = 41): 12 (29.3%) participants (%)
Participants with treatment-related adverse events (TRAEs) (participants with nAMD; all cohorts, N = 41): 33 (80.5%) participants (%)
Elevated alanine aminotransferase (most common nonocular TRAE) (participants with nAMD; all participants): 41.5%
Dose-limiting toxicities (DLTs), total (participants with nAMD; dose escalation 25–100 mg daily): two
Maximum tolerated dose (participants with nAMD; oral 25–100 mg daily): not reached
Accumulation [1, 2]: no obvious accumulation
Time to steady-state concentration [1, 2]: 4 days
Dose dependence of maximum blood concentration and area under the curve ([1]; doses of 25–50 mg after a single dose): increased linearly in a dose-dependent manner
half-life ([1]; 25 mg, single dose 25 mg): 354 min
Cmax ([1]; 25 mg, single dose 25 mg, read-out: Cmax): 140 ng/mL
Tmax ([1]; 25 mg, single dose 25 mg, read-out: Tmax): 3.03 h
half-life ([1]; 50 mg, multiple doses 50 mg daily): 294 min
Cmax ([1]; 50 mg, multiple doses 50 mg daily, read-out: Cmax,ss): 246 ng/mL
Tmax ([1]; 50 mg, multiple doses 50 mg daily, read-out: Tmax,ss): 5.03 h
